In the NIST ThermoML archive (doi:10.1016/j.jct.2018.12.022):

Tests used:
[1] = mn = molality of the nth substance listed, in mol/kg; conditions: 85 kPa, Liquid; for viscosity: Falling or rolling sphere viscometry; for speed of sound: Frequency=3 MHz, Single path-length method; for mass density: Vibrating tube method
[2] = refractive index (Na D-line) (dimensionless); mn = molality of the nth substance listed, in mol/kg; conditions: 85 kPa, Liquid, Standard Abbe refractometry

C[C@H](N)C(=O)[O-].C[N+](C)(C)CCO [2-hydroxy-N,N,N-trimethylethanaminium L-alaninate] + O
Conditions | mass density, [1] [kg/m3] | refractive index, [2] | speed of sound, [1] [m/s] | viscosity, [1] [mPa·s]
288.15 K, m1 = 0.0108 | 999.398 | 1.3338 | 1468 | 1.143
288.15 K, m1 = 0.0204 | 999.663 | 1.334 | 1469.3 | 1.147
288.15 K, m1 = 0.03 | 999.914 | 1.3342 | 1470.7 | 1.151
288.15 K, m1 = 0.0401 | 1000.17 | 1.3345 | 1472.1 | 1.155
288.15 K, m1 = 0.0509 | 1000.44 | 1.3349 | 1473.6 | 1.16
288.15 K, m1 = 0.0583 | 1000.62 | 1.3351 | 1474.6 | 1.163
298.15 K, m1 = 0.0108 | 997.345 | 1.3331 | 1498.4 | 0.897
298.15 K, m1 = 0.0204 | 997.608 | 1.3333 | 1499.7 | 0.9
298.15 K, m1 = 0.03 | 997.858 | 1.3335 | 1501 | 0.903
298.15 K, m1 = 0.0401 | 998.115 | 1.3337 | 1502.4 | 0.906
298.15 K, m1 = 0.0509 | 998.382 | 1.3341 | 1503.9 | 0.91
298.15 K, m1 = 0.0583 | 998.553 | 1.3343 | 1504.9 | 0.912
308.15 K, m1 = 0.0108 | 994.326 | 1.3319 | 1521.6 | 0.732
308.15 K, m1 = 0.0204 | 994.588 | 1.3321 | 1522.9 | 0.735
308.15 K, m1 = 0.03 | 994.839 | 1.3323 | 1524.2 | 0.737
308.15 K, m1 = 0.0401 | 995.097 | 1.3326 | 1525.6 | 0.74
308.15 K, m1 = 0.0509 | 995.362 | 1.333 | 1527 | 0.743
308.15 K, m1 = 0.0583 | 995.534 | 1.3333 | 1528 | 0.745
318.15 K, m1 = 0.0108 | 990.514 | 1.3304 | 1537.5 | 0.604
318.15 K, m1 = 0.0204 | 990.779 | 1.3306 | 1538.8 | 0.607
318.15 K, m1 = 0.03 | 991.029 | 1.3309 | 1540 | 0.609
318.15 K, m1 = 0.0401 | 991.289 | 1.3312 | 1541.3 | 0.611
318.15 K, m1 = 0.0509 | 991.561 | 1.3315 | 1542.8 | 0.613
318.15 K, m1 = 0.0583 | 991.728 | 1.3318 | 1543.7 | 0.615
